# Reference: patent US9226912B2, “Acetyltanshinone IIA (ATA) as anticancer agent” (Nanyang Technological University, priority 2011, dated 2016)
# “Also recorded” adds a separate entry of the source. Read-outs that look alike come from different tables or passages of the source.
# Columns and labels:
# ROS in MDA-MB-435 cells = assay: ROS generation and its prevention by PG; type: cell-based, human; settings: MDA-MB-435 cells
# Procedure: (A) PG prevented ATA-induced cell death. Three concentrations of PG were tested for their protective effects on ATA-induced cell death. The cell viability was measured by SRB assay. (* p<0.01). (B) PG protected ROS generation caused by ATA treatment. […] All the experiments were performed at least three times. The results presented in this figure are the average of three experiments. Error bar represents standard deviation. Scale bar=20 μm.
# (§1) It was further tested, whether PG could prevent ROS generation after ATA treatment.
# ERα in MCF-7 cells = target: T1, ERα in MCF-7 cells (Homo sapiens, UniProt P03372); assay: ERα protein level by immunostaining and Western blot; type: cell-based
# T1 construct: endogenous in cells; host or cells: MCF-7 human breast cancer cells
# T1 sequence (P03372 1-595): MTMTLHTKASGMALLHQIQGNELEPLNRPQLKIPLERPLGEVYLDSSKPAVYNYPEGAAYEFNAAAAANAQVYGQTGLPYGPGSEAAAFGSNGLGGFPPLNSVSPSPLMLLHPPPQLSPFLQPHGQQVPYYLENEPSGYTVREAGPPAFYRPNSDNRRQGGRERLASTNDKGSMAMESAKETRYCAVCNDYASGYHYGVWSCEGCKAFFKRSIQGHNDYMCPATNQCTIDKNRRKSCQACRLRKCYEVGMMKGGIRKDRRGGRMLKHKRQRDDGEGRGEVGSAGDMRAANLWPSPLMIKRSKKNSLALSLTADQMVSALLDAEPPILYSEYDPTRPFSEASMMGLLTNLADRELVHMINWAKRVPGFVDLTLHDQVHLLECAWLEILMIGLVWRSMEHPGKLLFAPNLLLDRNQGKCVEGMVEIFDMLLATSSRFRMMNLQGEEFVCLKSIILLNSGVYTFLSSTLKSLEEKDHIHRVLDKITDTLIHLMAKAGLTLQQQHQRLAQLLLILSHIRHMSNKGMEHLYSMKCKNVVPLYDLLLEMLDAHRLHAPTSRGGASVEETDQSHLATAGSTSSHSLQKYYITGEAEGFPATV
# Procedure: (B) Western blot analysis of ERα levels in normal medium-cultured MCF-7 cells at different times with 6 μM ATA treatment.
# Thus, immunostaining was used to exam the protein level of ERα in MCF-7 cells after ATA treatment. It was observed that ERα was mainly localized in the nucleus (FIG. 6A) in the control cells, which had been cultured in the charcoal-stripped medium for 4 days.
# Subsequently, Western blot analysis was used to confirm this prediction. […] To ensure that ATA produced a similar effect in the MCF-7 cells under a physiological condition, Western blotting was used to determine the protein level of ERα in normal medium-cultured MCF-7 cells with or without ATA treatment.
# MDA-MB-435 = assay: IC50 and LC50 of ATA at 48 h; type: cell-based; settings: Homo sapiens, MDA-MB-435 melanoma
# [1] = test system: HER2 protein in BT474 cells; assay: HER2 protein level by Western blotting; type: cell-based, human; settings: 6 μM ATA or 1 μM fulvestrant
# Procedure: (§2) Cells were treated with 6 μM ATA or 1 μM fulvestrant for indicated times and analyzed by Western blotting.
# MCF-7 cells = assay: Combinatorial effect of ATA with paclitaxel, MTT assay; type: cell-based; settings: Homo sapiens, read-out: cell growth inhibition rate
# Procedure: The effect was determined by measuring the rates of cell growth inhibition using MTT assay. (* p<0.01, compared with cells treated with either paclitaxel alone or ATA alone).
# The inventors of the present invention have shown for the first time that ATA can increase the cytotoxic effect of paclitaxel. In the tests (FIG. 16) with five concentrations of ATA at 10, 5, 2.5, 1.25, 0.625 μM and five concentrations of paclitaxel at 1000, 100, 10, 1, 0.1 nM were used.
# HeLa = assay: IC50 and LC50 of ATA at 48 h; type: cell-based; settings: Homo sapiens, HeLa cervical cancer
# ERα in BT474 cells = target: T2, ERα in BT474 cells (Homo sapiens, UniProt P03372); assay: ERα protein level by Western blotting; type: cell-based; settings: 6 μM ATA or 1 μM fulvestrant
# T2 construct: endogenous in cells; host or cells: BT474 human breast cancer cells
# Procedure: as §2
# MCF-7 [2] = assay: Growth inhibition at 72 h by MTT assay
# [3] = Solubility relative to TIIA; type: physicochemical; settings: in both DMSO and PBS
# Procedure: A mixture of TIIA (2.04 g), sodium acetate (2.5 g), acetic anhydride (18 ml), and anhydrous zinc powder (6 g) is stirred in a boiling water bath for 3 h, then immediately filtrated by using a vacuum filtration system to remove the insoluble residues. The filtrate is diluted with water (300 ml), and then heated to boil. The resulting solution is cooled at room temperature and filtered to give a solid product (1.80 g). The product can be further crystallized using 95% ethanol to produce the final product (1.51 g) acetyltanshinone IIA (ATA) with chemical designation of 1,6,6-trimethyl-8,9-dihydro-10,11-diacetoxyl-7H-naphtho[1,2-g][1]benzofuran (FIG. 2). ATA appeared in white color, which is totally different from its original red color.
# SiHa = assay: IC50 and LC50 of ATA at 48 h; type: cell-based; settings: Homo sapiens, SiHa cervical cancer
# T47D = assay: Growth inhibition at 72 h by MTT assay; type: cell-based; settings: T47D (ER+)
# [4] = test system: Bax and cytochrome c in MDA-MB-435 cells; assay: Bax translocation and cytochrome c release, cell fractionation Western blot and immunofluorescence; type: cell-based, human; settings: 5 μM ATA, 24 h, normalized to control 1.0
# Procedure: The concentration of ATA and PG were 5 μM and 20 μM, respectively. […] Scale bar=10 μm.
# The value of CY/MT represents the ratio of integrated band intensity of cytosol fraction (CY) over corresponding integrated band intensity of mitochondrial fraction (MT). The ratio was normalized by the control group. Two proteins were used as internal markers to judge the quality of cell fractionation experiment: Cox IV for mitochondria and β-tubulin mainly for cytosol.
# The subcellular localization changes of Bax and cytochrome c during ATA-induced apoptosis were first examined using immunofluorescence staining.
# as §1
# MCF-7 [5] = assay: IC50 and LC50 of ATA at 48 h; type: cell-based; settings: Homo sapiens, MCF7, MCF-7 breast cancer
# [6] = 6 μM ATA, 3 h, charcoal-stripped medium, immunostaining
smiles,measurement,setting,value
"CC(=O)Oc1c(OC(C)=O)c2c(C)coc2c2ccc3c(c12)CCCC3(C)C [ATA, 1,6,6-trimethyl-8,9-dihydro-10,11-diacetoxyl-7H-naphtho[1,2-g][1]benzofuran]",time of maximum ROS level after ATA addition,ROS in MDA-MB-435 cells,2 h
same,ERα protein level,"ERα in MCF-7 cells; 6 μM ATA, 24 and 48 h, normal medium, Western blot",significantly decreased
same,ERα fluorescence intensity in the cytosol,ERα in MCF-7 cells; [6],remained unchanged
same,level of ERα in the nucleus,ERα in MCF-7 cells; [6],greatly reduced
same,total protein level of ERα,"ERα in MCF-7 cells; 4 h, charcoal-stripped medium, Western blot",slightly reduced
same,total protein level of ERα,"ERα in MCF-7 cells; after 8 h, charcoal-stripped medium, Western blot",significantly reduced
same,CC50,MDA-MB-435,2740 ± 510 nM
same,IC50,MDA-MB-435,550 ± 150 nM
same,level of HER2 protein,[1],can reduce the level of HER2 protein; also recorded: reduced the level of ERα and HER2
same,inhibition at 2.5 µM,"MCF-7 cells; MCF7, 2.5 μM ATA in combination with paclitaxel 1 nM",~89%
same,inhibition at 2.5 µM,"MCF-7 cells; MCF7, ATA alone at 2.5 μM",71%
same,CC50,HeLa,10900 ± 1450 nM
same,IC50,HeLa,1390 ± 130 nM
same,level of ERα,ERα in BT474 cells,reduced the level of ERα and HER2
same,IC50,"MCF-7 [2]; Homo sapiens, MCF7, 72 h",1480 ± 240 nM
same,inhibition at 3.13 µM,"MCF-7 [2]; Homo sapiens, MCF7, 72 h, read-out: growth inhibition rate",94.7%
same,IC50 ratio of tamoxifen/ATA,"MCF-7 [2]; MCF-7 (ER+), 72 h",6.8
same,higher growth inhibition rate than tamoxifen,"MCF-7 [2]; MCF-7, three tested drug concentrations, 72 h, MTT",57-74%
same,less ATA needed than tamoxifen to inhibit 50% of ER-positive cell growth,"MCF-7 [2]; two ER-positive breast cancer cell lines, 72 h",6.7 fold
same,higher solubility than TIIA,[3],22 fold
same,CC50,SiHa,12300 ± 680 nM
same,IC50,SiHa,1960 ± 490 nM
same,IC50,T47D; Homo sapiens,1400 ± 200 nM
same,IC50 ratio of tamoxifen/ATA,T47D,6.7
same,ratio of Bax level in the cytosol to that in the mitochondria,[4],< 0.1
same,ratio of cytochrome c level in cytosol to that in mitochondria,[4],7.5
same,CC50,MCF-7 [5],7640 ± 300 nM
same,IC50,MCF-7 [5],1390 ± 640 nM
